One assay deals with human PDE-5A1 (Homo sapiens (Human), UniProt O76074). As to the kind of experiment: Human PDE-5A1 inhibition assay (fluorescence polarization, FAM-cGMP). The assay is classed as biochemical. Conditions: human PDE5A1, 100 nM FAM-cGMP, 60 minutes room temperature. From the text:
This example illustrates the in vitro inhibition of human PDE-5A1 by exemplary compounds of this disclosure (e.g., as described herein).
Sildenafil citrate (Catalog no. LKT-S3313, Axxora, San Diego, CA), Vardenafil hydrochloride trihydrate (Catalog no. SML2103, Sigma-Aldrich, St. Louis, MO), PDE Assay Buffer (Catalog no. 60393, BPS bioscience, San Diego, CA), PDE Binding Agent (Catalog no. 60390, BPS bioscience, San Diego, CA) and PDE Binding Agent Diluent (cGMP, Catalog no. 60392, BPS bioscience, San Diego, CA) were used for assays. Test compounds were supplied by Ildong Pharmaceuticals Co., Ltd.
The serial dilution of the compounds was first performed in 100% DMSO with the highest concentration at 1 mM and 0.1 mM. Each intermediate compound dilution (in 100% DMSO) will then get directly diluted 10× fold into assay buffer for 10% DMSO and 5 μL of the dilution was added to a 50 μL reaction so that the final concentration of DMSO is 1% in all reactions.
The enzymatic reactions were conducted at room temperature for 60 minutes in a 50 μL mixture containing PDE assay buffer, 100 nM FAM-cGMP, a PDE enzyme (Table 2) and the test compounds.
After enzymatic reaction, 100 μL of a binding solution (1:100 dilution of the binding agent with the binding agent diluent) was added to each reaction and the reaction was performed at room temperature for 60 minutes.
Fluorescence intensity was measured at excitation of 485 nm and an emission of 528 nm using a Tecan Infinite M1000 microplate reader.
PDE activity assays were performed in duplicate at each concentration. Fluorescence intensity is converted to fluorescence polarization using the Tecan Magellan6 software. The fluorescence polarization (FPt) in absence of the compound in each data set was defined as 100% activity. In the absence of PDE and the compound, the value fluorescent polarization (FPb) in each data set was defined as 0% activity. The percent activity in the presence of compound was calculated according to Equation 1:
[formula] where FP=the fluorescence polarization in the presence of the compound.
The values of % activity versus a series of compound concentrations were then plotted using non-linear regression analysis of Sigmoidal dose-response curve generated with Equation 2:
[formula] where Y=percent activity, B=minimum percent activity, T=maximum percent activity, X=logarithm of compound, and Hill Slope=slope factor or Hill coefficient. The IC50 value was determined by the concentration causing a half-maximal percent activity. Results

A further assay deals with Human androgen receptors (Homo sapiens (Human), UniProt P10275, T878A). Briefly: Androgen receptor (AR) radioligand binding assay. Conditions: read-out: AR IC50. Here is the method: Methods employed in this study have been adapted from the following literature procedure.
Human androgen receptors obtained from human LNCaP cells are used in modified HEPES buffer pH 7.4. […] Non-specific binding is estimated in the presence of 1 μM testosterone. […] (See, e.g., Traish, A. M et al., Binding of 7α, 17α-dimethyl-19-nortestosterone (Mibolerone) to androgen and progesterone receptors in human and animal tissues. Endocrinology. 118(4): 1327-1333, 1986).
Compounds are screened at 10 μM.
Where presented, IC50 values were determined by a non-linear, least squares regression analysis using MathIQ™ (ID Business Solutions Ltd., UK).

Another assay deals with androgen receptor (AR) (Homo sapiens (Human), UniProt P10275). Briefly: Androgen receptor (AR) reporter assay, antagonist screen activated by R1881. The assay is classed as cell-based. Conditions: AR-UAS-bla GripTite 293 cells, antagonist mode, R1881 at EC80. Here is the method: The protocols and results of this Example were carried out and obtained by Thermofisher Scientific.
Test compounds were received at 1000× (or greater) of the desired starting concentration in 100% DMSO. If compounds were supplied at greater that 1000× concentration, an initial dilution is made in 100% DMSO to bring the compounds to 1000× concentration. The 1000× test compounds were serially diluted (10 point ½-log increments) in 100% DMSO.
The Substrate Loading Solution consists of three Life Technologies reagents: Solution A (10 mM LiveBLAzer™-FRET B/G Substrate), Solution B and Solution C.
Androgen Receptor (AR)—Antagonist Screen, Activated by R1881
AR-UAS-bla GripTite™ 293 cells were thawed and resuspended in Assay Media (DMEM phenol red free, 2% CD-treated FBS, 0.1 mM NEAA, 1 mM Sodium Pyruvate, 100 U/mL/100 μg/mL Pen/Strep) to a concentration of 312,500 cells/mL. 4 μL of a 10× serial dilution of Cyproterone Acetate (control antagonist starting concentration, 3,160 nM) or compounds are added to appropriate wells of a Poly-D-Lysine assay plate. 32 μL of cell suspension was added to the wells and pre-incubated at 37° C./5% CO2 in a humidified incubator with compounds and control antagonist titration for 30 minutes. 4 μL of 10× control agonist R1881 at the pre-determined EC80 concentration was added to wells containing the control antagonist or compounds. The plate was incubated for 16-24 hours at 37° C./5% CO2 in a humidified incubator. 8 μL of 1 μM Substrate Loading Solution is added to each well and the plate was incubated for 2 hours at room temperature. The plate was read on a fluorescence plate reader (Tecan Safire^2).
A general note: A reporter such as luciferase makes a cellular process visible.

The values that follow come from US11787812B2, “Substituted pyrazolo[4,3-d]pyrimidines and imidazo[5,1 -f][1,2,4]triazines as androgen receptor and phosphodiesterase dual inhibitors” (ILDONG PHARMACEUTICAL CO., LTD., priority 2020, dated 2023).

Chain of androgen receptor (AR) (P10275 other isoform, or with tags, fused parts or gaps): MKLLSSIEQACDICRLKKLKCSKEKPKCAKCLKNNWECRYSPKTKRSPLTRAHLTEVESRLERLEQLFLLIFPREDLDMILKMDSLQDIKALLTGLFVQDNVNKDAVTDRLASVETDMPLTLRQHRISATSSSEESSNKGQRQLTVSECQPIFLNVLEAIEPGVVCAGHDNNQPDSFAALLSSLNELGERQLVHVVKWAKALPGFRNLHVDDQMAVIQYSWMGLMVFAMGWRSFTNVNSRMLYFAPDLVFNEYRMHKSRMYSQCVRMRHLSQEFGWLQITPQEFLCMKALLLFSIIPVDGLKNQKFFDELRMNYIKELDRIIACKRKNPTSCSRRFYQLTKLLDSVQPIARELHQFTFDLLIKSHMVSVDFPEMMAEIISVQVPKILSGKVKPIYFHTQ
Chain of Human androgen receptors (P10275 whole entry T878A): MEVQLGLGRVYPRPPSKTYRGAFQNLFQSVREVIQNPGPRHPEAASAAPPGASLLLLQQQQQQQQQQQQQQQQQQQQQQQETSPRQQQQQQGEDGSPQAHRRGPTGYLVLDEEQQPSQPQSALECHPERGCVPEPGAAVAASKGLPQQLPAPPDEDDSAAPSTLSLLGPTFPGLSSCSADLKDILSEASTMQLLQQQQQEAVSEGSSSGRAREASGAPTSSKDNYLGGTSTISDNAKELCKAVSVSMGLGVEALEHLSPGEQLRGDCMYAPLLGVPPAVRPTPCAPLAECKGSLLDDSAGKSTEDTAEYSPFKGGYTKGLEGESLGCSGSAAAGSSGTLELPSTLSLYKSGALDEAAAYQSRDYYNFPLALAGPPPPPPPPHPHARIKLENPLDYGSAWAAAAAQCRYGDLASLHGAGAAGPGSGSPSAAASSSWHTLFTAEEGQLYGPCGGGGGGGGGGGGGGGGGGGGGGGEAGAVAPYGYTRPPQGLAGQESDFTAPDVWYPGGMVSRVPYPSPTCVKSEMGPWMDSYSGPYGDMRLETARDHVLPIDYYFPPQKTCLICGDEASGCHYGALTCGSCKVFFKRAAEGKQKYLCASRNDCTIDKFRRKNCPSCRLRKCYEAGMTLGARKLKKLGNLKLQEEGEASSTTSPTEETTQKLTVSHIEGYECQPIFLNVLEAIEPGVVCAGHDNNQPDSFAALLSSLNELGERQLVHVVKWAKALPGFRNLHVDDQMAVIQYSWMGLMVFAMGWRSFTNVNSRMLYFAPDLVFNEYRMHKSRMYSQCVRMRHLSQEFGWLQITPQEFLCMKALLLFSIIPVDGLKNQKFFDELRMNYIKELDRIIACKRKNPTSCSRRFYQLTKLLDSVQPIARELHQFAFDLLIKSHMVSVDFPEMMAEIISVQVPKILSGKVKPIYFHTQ

Take `CCCc1nc(C)c2c(=O)[nH]c(-c3cc(N4C(=S)N(c5cnc(C#N)c(C(F)(F)F)c5)C(=O)C45CCC5)ccc3OCC)nn12` [Compound 24, 5-(5-(4-ethoxy-3-(5-methyl-4-oxo-7-propyl-3,4-dihydroimidazo[5,1-f][1,2,4]triazin-2-yl)phenyl)-8-oxo-6-thioxo-5,7-diazaspiro[3.4]octan-7-yl)-3-(trifluoromethyl)picolinonitrile]: the values for the IC50 on human PDE-5A1 and at Human androgen receptors were at most 10 nM and 50 to 200 nM, respectively.

For the compound `CCCc1nn(C)c2c(=O)[nH]c(-c3cc(S(=O)(=O)Nc4ccc(C#N)c(Cl)c4)ccc3OCC)nc12` [Compound 8, N-(3-chloro-4-cyanophenyl)-4-ethoxy-3-(1-methyl-7-oxo-3-propyl-6,7-dihydro-1H-pyrazolo[4,3-d]pyrimidin-5-yl)benzenesulfonamide], the IC50 (usually the concentration that gives 50% inhibition) at human PDE-5A1 is at most 10 nM.

Regarding `CCCc1nn(C)c2c(=O)[nH]c(-c3cc(S(=O)(=O)Nc4ccc(C#N)c(C(F)(F)F)c4)ccc3OCC)nc12` [Compound 1, N-(4-cyano-3-(trifluoromethyl)phenyl)-4-ethoxy-3-(1-methyl-7-oxo-3-propyl-6,7-dihydro-1H-pyrazolo[4,3-d]pyrimidin-5-yl)benzenesulfonamide], the IC50 against human PDE-5A1 was at most 10 nM.

At human PDE-5A1, `CCCc1nn(C)c2c(=O)[nH]c(-c3cc(S(=O)(=O)NC[C@@](C)(O)C(=O)Nc4ccc(C#N)c(C(F)(F)F)c4)ccc3OCC)nc12` [Compound 4, (R)-N-(4-cyano-3-(trifluoromethyl)phenyl)-3-((4-ethoxy-3-(1-methyl-7-oxo-3-propyl-6,7-dihydro-1H-pyrazolo[4,3-d]pyrimidin-5-yl)phenyl)sulfonamido)-2-hydroxy-2-methylpropanamide] displayed an IC50 of 10 to 100 nM.

With `CCCc1nc(C)c2c(=O)[nH]c(-c3cc(NC(=O)Nc4ccc(C#N)c(C(F)(F)F)c4)ccc3OCC)nn12` [Compound 27, 1-(4-cyano-3-(trifluoromethyl)phenyl)-3-(4-ethoxy-3-(5-methyl-4-oxo-7-propyl-3,4-dihydroimidazo[5,1-f][1,2,4]triazin-2-yl)phenyl)urea], the IC50 was at most 10 nM against human PDE-5A1 and above 100 nM at androgen receptor (AR).

On to `CCCc1nc(C)c2c(=O)[nH]c(-c3cc(N4CC(=O)N(c5ccc(C#N)c(C(F)(F)F)c5)C4=S)ccc3OCC)nn12` [Compound 25, 4-(3-(4-ethoxy-3-(5-methyl-4-oxo-7-propyl-3,4-dihydroimidazo[5,1-f][1,2,4]triazin-2-yl)phenyl)-5-oxo-2-thioxoimidazolidin-1-yl)-2-(trifluoromethyl)benzonitrile], for which the IC50 on human PDE-5A1 was at most 10 nM; on androgen receptor (AR), above 100 nM.

`CCCc1nn(C)c2c(=O)[nH]c(-c3cc(S(=O)(=O)N[C@@H](C)Cn4ccc(-c5ccc(C#N)c(Cl)c5)n4)ccc3OCC)nc12` [Compound 11, (S)-N-(1-(3-(3-chloro-4-cyanophenyl)-1H-pyrazol-1-yl)propan-2-yl)-4-ethoxy-3-(1-methyl-7-oxo-3-propyl-6,7-dihydro-1H-pyrazolo[4,3-d]pyrimidin-5-yl)benzenesulfonamide]: the IC50 against human PDE-5A1 is above 100 nM.

In the case of `CCCc1nc(C)c2c(=O)[nH]c(-c3cc(NC(=S)Nc4ccc(C#N)c(C(F)(F)F)c4)ccc3OCC)nn12` [Compound 28, 1-(4-cyano-3-(trifluoromethyl)phenyl)-3-(4-ethoxy-3-(5-methyl-4-oxo-7-propyl-3,4-dihydroimidazo [5,1-f][1,2,4]triazin-2-yl)phenyl)thiourea], the IC50 against human PDE-5A1 was at most 10 nM; on androgen receptor (AR) it was above 100 nM.

On human PDE-5A1, `CCCc1nn(C)c2c(=O)[nH]c(-c3cc(S(=O)(=O)C[C@](C)(O)C(=O)Nc4ccc(C#N)c(C(F)(F)F)c4)ccc3OCC)nc12` [Compound 3, (R)-N-(4-cyano-3-(trifluoromethyl)phenyl)-3-((4-ethoxy-3-(1-methyl-7-oxo-3-propyl-6,7-dihydro-1H-pyrazolo[4,3-d]pyrimidin-5-yl)phenyl)sulfonyl)-2-hydroxy-2-methylpropanamide] showed an IC50 of 10 to 100 nM.

The compound `CCCc1nc(C)c2c(=O)[nH]c(-c3cc(S(=O)(=O)Nc4ccc(C#N)c(Cl)c4)ccc3OCC)nn12` [Compound 9, N-(3-chloro-4-cyanophenyl)-4-ethoxy-3-(5-methyl-4-oxo-7-propyl-3,4-dihydroimidazo[5,1-f][1,2,4]triazin-2-yl)benzenesulfonamide] registered an IC50 on human PDE-5A1 of at most 10 nM.

Regarding `CCCc1nc(C)c2c(=O)[nH]c(-c3cc(S(=O)(=O)Nc4cnc(C#N)c(C(F)(F)F)c4)ccc3OCC)nn12` [Compound 6, N-(6-cyano-5-(trifluoromethyl)pyridin-3-yl)-4-ethoxy-3-(5-methyl-4-oxo-7-propyl-3,4-dihydroimidazo[5,1-f][1,2,4]triazin-2-yl)benzenesulfonamide], the IC50 against human PDE-5A1 is at most 10 nM.

`CCCc1nc(C)c2c(=O)[nH]c(-c3cc(S(=O)(=O)Nc4ccc(C#N)c(C(F)(F)F)c4)ccc3OCC)nn12` [Compound 7, N-(4-cyano-3-(trifluoromethyl)phenyl)-4-ethoxy-3-(5-methyl-4-oxo-7-propyl-3,4-dihydroimidazo[5,1-f][1,2,4]triazin-2-yl)benzenesulfonamide] displayed an IC50 on human PDE-5A1 of at most 10 nM.

`CCCc1nc(C)c2c(=O)[nH]c(-c3cc(S(=O)(=O)N[C@H]4C[C@H](C(O)C(F)(F)F)N(c5ccc(C#N)c(C(F)(F)F)c5)C4)ccc3OCC)nn12` (stereo partly drawn) [Compound 10, N-((3S,5R)-1-(4-cyano-3-(trifluoromethyl)phenyl)-5-(2,2,2-trifluoro-1-hydroxyethyl)pyrrolidin-3-yl)-4-ethoxy-3-(5-methyl-4-oxo-7-propyl-3,4-dihydroimidazo[5,1-f][1,2,4]triazin-2-yl)benzenesulfonamide] showed an IC50 against human PDE-5A1 of at most 10 nM.

`CCCc1nn(C)c2c(=O)[nH]c(-c3cc(S(=O)(=O)Nc4cnc(C#N)c(C(F)(F)F)c4)ccc3OCC)nc12` [Compound 5, N-(6-cyano-5-(trifluoromethyl)pyridin-3-yl)-4-ethoxy-3-(1-methyl-7-oxo-3-propyl-6,7-dihydro-1H-pyrazolo[4,3-d]pyrimidin-5-yl)benzenesulfonamide]: the IC50 against human PDE-5A1 was at most 10 nM.

`CCCc1nn(C)c2c(=O)[nH]c(-c3cc(SC[C@](C)(O)C(=O)Nc4ccc(C#N)c(C(F)(F)F)c4)ccc3OCC)nc12` [Compound 2, (R)-N-(4-cyano-3-(trifluoromethyl)phenyl)-3-((4-ethoxy-3-(1-methyl-7-oxo-3-propyl-6,7-dihydro-1H-pyrazolo[4,3-d]pyrimidin-5-yl)phenyl)thio)-2-hydroxy-2-methylpropanamide] displayed an IC50 against human PDE-5A1 of 10 to 100 nM.
